Experimental data reported in patent US12371454B2, “Cyclic peptide compound having Kras inhibitory action” (priority 2019, dated 2025).
Starred links: 1 amine or outer side, 2 acyl side, 3 side chain; linkers in the order of their positions; H or OH if unused. Positions of bridges follow the written chain, without caps; N, C: chain ends. Non-standard residues stand in square brackets, D forms with d. Residues, ends and D or L forms follow the SMILES beside them. *: point of attachment. hPhe(3-Cl-4-CF3) = N[C@@H](CCc1ccc(C(F)(F)F)c(Cl)c1)C(=O)O; hPhe(3-F,4-CF3) = N[C@@H](CCc1ccc(C(F)(F)F)c(F)c1)C(=O)O; X12 = CN([C@@H](Cc1ccc(C(F)(F)F)nc1)C(=O)[*:2])[*:1]; hPhe(4-CF3) = N[C@@H](CCc1ccc(C(F)(F)F)cc1)C(=O)O; NMePhe(4-Cl) = CN[C@@H](Cc1ccc(Cl)cc1)C(=O)O; Phe(3,5-F2) = N[C@@H](Cc1cc(F)cc(F)c1)C(=O)O; NMePhe(4-Me) = CN[C@@H](Cc1ccc(C)cc1)C(=O)O; NMedβ3hAla = C[C@H](CC(=O)[*:2])N(C)[*:1]; Phe(3-Cl) = N[C@@H](Cc1cccc(Cl)c1)C(=O)O; hPhe(4-F) = N[C@@H](CCc1ccc(F)cc1)C(=O)O; NMeGly(cPent) = CN[C@H](C(=O)O)C1CCCC1; Phe(3-I) = N[C@@H](Cc1cccc(I)c1)C(=O)O; X26 = O=C([C@@H]1CCC[C@H]1N[*:1])[*:2]; NMeCha = CN[C@@H](CC1CCCCC1)C(=O)O; NMeGly(cPr) = CN[C@H](C(=O)O)C1CC1; NMehLeu = CN[C@@H](CCC(C)C)C(=O)O; NMeChg = CN[C@H](C(=O)O)C1CCCCC1; NMeF = CN[C@@H](Cc1ccccc1)C(=O)O; NMeI = CC[C@H](C)[C@H](NC)C(=O)O; hPhe = N[C@@H](CCc1ccccc1)C(=O)O; N(CH2CH2)2CF2 = FC1(F)CCN(*)CC1; NMeD = CN[C@@H](CC(=O)O)C(=O)O; NMeL = CN[C@@H](CC(C)C)C(=O)O; NMeV = CN[C@H](C(=O)O)C(C)C; d(β3hA) = C[C@@H](N)CC(=O)O; NMeS = CN[C@@H](CO)C(=O)O; Pip = O=C(O)[C@@H]1CCCCN1; Morpholide = C1CN(*)CCO1; NMeA = CN[C@@H](C)C(=O)O; NMeAib = CNC(C)(C)C(=O)O; Piperidide = C1CCN(*)CC1; Pyrrolidide = C1CCN(*)C1; Ac5c = NC1(C(=O)O)CCCC1; Aze = O=C(O)[C@@H]1CCN1; Aib = CC(C)(N)C(=O)O; Isopentyl = CC(C)CC*; NEtG = CCNCC(=O)O; Sar = CNCC(=O)O; Propyl = CCC*

Biological target: T1, Kras and SOS1 (biotin-tagged human Kras loaded with GDP, His-tagged human SOS1) (Homo sapiens, UniProt P01116, G12D)
T1 construct: made in house; host or cells: E. coli (stated for Kras only)
Assay: Protein-protein interaction inhibition between Kras and SOS1 (KrasGl2D-SOS PPI) using AlphaScreen
Format: binding
Conditions: AlphaScreen; biotin-tagged human Kras loaded with GDP, His-tagged human SOS1; read-out: KRAS G12D-SOS PPI IC50
Description: Protein-Protein Interaction Inhibition Between Kras and SOS1 (KrasGl2D-SOS PPI) Using AlphaScreen
Protein-protein interaction inhibition (PPI) between Kras and SOS1 was measured by energy transfer from nickel-conjugated donor beads to streptavidin-conjugated acceptor beads using biotin-tagged human Kras expressed in E. coli and loaded with GDP after purification and His-tagged human SOS1 enzyme. This measurement utilizes the phenomenon in which donor beads are irradiated with light at 680 nm, such that energy is transferred to acceptor beads through singlet oxygen and light at 520-620 nm is detected from the acceptor beads.
Inhibition of binding between K-ras and SOS1 is known to inhibit signaling downstream of Kras.

T1 sequence (P01116 1-188 isoform P01116-2 G12D): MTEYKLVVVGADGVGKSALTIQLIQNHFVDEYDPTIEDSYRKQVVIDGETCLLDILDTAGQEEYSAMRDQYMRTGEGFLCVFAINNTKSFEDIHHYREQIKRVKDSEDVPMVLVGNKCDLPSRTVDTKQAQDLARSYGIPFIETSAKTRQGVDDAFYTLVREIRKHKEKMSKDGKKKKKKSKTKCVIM

SMILES | IC50 [nM]
CC[C@H](C)[C@@H]1NC(=O)[C@H](CC(C)C)N(C)C(=O)C[C@@H](C(=O)N(C)C)N(C)C(=O)[C@H]([C@@H](C)CC)N(C)C(=O)[C@H](C(C)C)NC(=O)[C@H](C)N(C)C(=O)[C@H](CCc2ccc(C(F)(F)F)c(Cl)c2)NC(=O)CN(C)C(=O)[C@H](Cc2ccc(C)cc2)N(C)C(=O)[C@@H]2CCN2C(=O)[C@H](C)N(C)C1=O [Compound 4] ([NMeL]I[NMeA][Aze][NMePhe(4-Me)][Sar][hPhe(3-Cl-4-CF3)][NMeA]V[NMeI][NMeD]-NMe2; lactam N-11) | 13
CC[C@H](C)[C@@H]1NC(=O)[C@H](CC(C)C)N(C)C(=O)C[C@@H](C(=O)N2CCCCC2)N(C)C(=O)[C@H](C2CCCCC2)N(C)C(=O)C2(CCCC2)NC(=O)[C@H](Cc2ccc(C(F)(F)F)nc2)N(C)C(=O)[C@H](CCc2ccc(C(F)(F)F)c(Cl)c2)NC(=O)CN(C)C(=O)[C@H](CC2CCCCC2)N(C)C(=O)[C@@H]2CCN2C(=O)CN(C)C1=O [Compound 6] ([NMeL]I[Sar][Aze][NMeCha][Sar][hPhe(3-Cl-4-CF3)][X12][Ac5c][NMeChg][NMeD]-Piperidide; lactam N-11) | 13
COC[C@@H]1NC(=O)[C@H](CC(C)C)N(C)C(=O)C[C@@H](C(=O)N2CCCCC2)N(C)C(=O)[C@H](C(C)C)N(C)C(=O)C2(CCCC2)NC(=O)[C@@H]2CCCN2C(=O)[C@H](CCc2ccc(C(F)(F)F)c(Cl)c2)NC(=O)CN(C)C(=O)[C@H](CC2CCCCC2)N(C)C(=O)[C@@H]2CCN2C(=O)[C@H](C)N(C)C1=O [Compound 7] ([NMeL]S(Me)[NMeA][Aze][NMeCha][Sar][hPhe(3-Cl-4-CF3)]P[Ac5c][NMeV][NMeD]-Piperidide; lactam N-11) | 18
CCCOC[C@H]1C(=O)N(C)CC(=O)N[C@@H](CCc2ccc(C(F)(F)F)c(F)c2)C(=O)N2CCC[C@H]2C(=O)NC2(CCCC2)C(=O)N(C)[C@@H](C2CCCC2)C(=O)N(C)[C@H](C(=O)N2CCOCC2)CC(=O)N(C)[C@@H](CC(C)C)C(=O)N[C@@H]([C@@H](C)CC)C(=O)N(C)[C@@H](C)C(=O)N2CC[C@H]2C(=O)N1C [Compound 9, (5S,8S,11S,15S,18S,23aS,29S,35S,37aS)-8-((S)-sec-butyl)-18-cyclopentyl-29-(3-fluoro-4-(trifluoromethyl)phenethyl)-11-isobutyl-5,6,12,16,19,33,36-heptamethyl-15-(morpholine-4-carbonyl)-35-(propoxymethyl)docosahydro-2H,4H-spiro[azeto[2,1-u]pyrrolo[2,1-i][1,4,7,10,13,16,19,22,25,28,31]undecaazacyclotetratriacontine-21,1′-cyclopentan]-4,7,10,13,17,20,23,28,31,34,37(14H,22H)-undecaone] ([NMeL]I[NMeA][Aze][NMeS](Propyl)[Sar][hPhe(3-F,4-CF3)]P[Ac5c][NMeGly(cPent)][NMeD]-Morpholide; lactam N-11) | 1.5
CC[C@H](C)[C@@H]1NC(=O)[C@H](CC(C)C)N(C)C(=O)C[C@@H](C(=O)N2CCCCC2)N(C)C(=O)[C@H](CC(C)C)NC(=O)C(C)(C)N(C)C(=O)[C@H](CCc2ccccc2)NC(=O)[C@H](Cc2cccc(I)c2)NC(=O)CN(C)C(=O)[C@H](Cc2ccc(C)cc2)N(C)C(=O)CN(C)C(=O)CN(C)C1=O [Compound 13] ([NMeL]I[Sar][Sar][NMePhe(4-Me)][Sar][Phe(3-I)][hPhe][NMeAib]L[NMeD]-Piperidide; lactam N-11) | 38
CC[C@H](C)[C@@H]1NC(=O)[C@H](CC(C)C)N(C)C(=O)C[C@@H](C)NC(=O)[C@H](C2CC2)N(C)C(=O)C2(CCCC2)NC(=O)[C@@H]2CCCN2C(=O)[C@H](CCc2ccc(C(F)(F)F)c(Cl)c2)NC(=O)CN(C)C(=O)[C@H](CC2CCCCC2)N(C)C(=O)CN(C)C(=O)CN(C)C1=O [Compound 14] (cyclo([Ac5c][NMeGly(cPr)][d(β3hA)][NMeL]I[Sar][Sar][NMeCha][Sar][hPhe(3-Cl-4-CF3)]P)) | 110
CC[C@H](C)[C@@H]1NC(=O)[C@H](C)N(C)C(=O)C[C@@H](C)NC(=O)[C@H](CC(C)C)N(C)C(=O)[C@H](Cc2ccccc2)N(C)C(=O)[C@@H]2CCCN2C(=O)[C@H](CCc2ccc(C(F)(F)F)cc2)NC(=O)CN(C)C(=O)[C@H]([C@@H](C)CC)N(C)C(=O)CN(C)C(=O)CN(C)C1=O [Compound 18] (cyclo(I[Sar][Sar][NMeI][Sar][hPhe(4-CF3)]P[NMeF][NMeL][d(β3hA)][NMeA])) | 230
CC[C@H](C)[C@@H]1NC(=O)[C@H](C)N(C)C(=O)C[C@@H](C(=O)N2CCCC2)NC(=O)[C@H](C(C)C)N(C)C(=O)[C@H](Cc2ccccc2)N(C)C(=O)[C@H](Cc2ccccc2)NC(=O)[C@H](Cc2cc(F)cc(F)c2)NC(=O)CN(C)C(=O)[C@H](Cc2ccc(Cl)cc2)N(C)C(=O)CN(C)C(=O)CN(C)C1=O [Compound 21] ([NMeA]I[Sar][Sar][NMePhe(4-Cl)][Sar][Phe(3,5-F2)]F[NMeF][NMeV]D-Pyrrolidide; lactam N-11) | 250
CC[C@H](C)[C@@H]1NC(=O)[C@H](CC(C)C)N(C)C(=O)C[C@@H](C)N(C)C(=O)[C@H](CCC(C)C)N(C)C(=O)C2(CCCC2)NC(=O)[C@@H]2CCCN2C(=O)[C@H](CCc2ccc(C(F)(F)F)c(Cl)c2)NC(=O)CN(C)C(=O)[C@H](CC2CCCCC2)N(C)C(=O)CN(C)C(=O)CN(C)C1=O [Compound 22] (cyclo([Ac5c][NMehLeu][NMedβ3hAla][NMeL]I[Sar][Sar][NMeCha][Sar][hPhe(3-Cl-4-CF3)]P)) | 110
CC[C@H](C)[C@@H]1NC(=O)[C@H](CC(C)C)N(C)C(=O)C[C@@H](C(=O)N(C)C)N(C)C(=O)[C@H](C2CCCC2)N(C)C(=O)[C@H](C(C)C)NC(=O)[C@@H](C)NC(=O)[C@H](CCc2ccc(C(F)(F)F)c(Cl)c2)NC(=O)CN(C)C(=O)[C@H](CC2CCCCC2)N(C)C(=O)[C@@H]2CCN2C(=O)[C@H](C)N(C)C1=O [Compound 24] ([NMeL]I[NMeA][Aze][NMeCha][Sar][hPhe(3-Cl-4-CF3)][dA]V[NMeGly(cPent)][NMeD]-NMe2; lactam N-11) | 25
CC[C@H](C)[C@@H]1NC(=O)[C@H](C)N(C)C(=O)[C@@H]2CCC[C@H]2NC(=O)[C@H](CC(C)C)N(C)C(=O)[C@H](Cc2ccccc2)N(C)C(=O)[C@@H]2CCCN2C(=O)[C@H](CCc2ccc(C(F)(F)F)cc2)NC(=O)CN(C)C(=O)[C@H](Cc2ccc(Cl)cc2)N(C)C(=O)CN(C)C(=O)CN(C)C1=O [Compound 25] (cyclo(I[Sar][Sar][NMePhe(4-Cl)][Sar][hPhe(4-CF3)]P[NMeF][NMeL][X26][NMeA])) | 150
CC[C@H](C)[C@@H]1NC(=O)[C@H](CC(C)C)N(C)C(=O)C[C@@H](C(=O)N2CCCC2)N(C)C(=O)[C@H](C2CCCC2)N(C)C(=O)C2(CCCC2)NC(=O)[C@H](CC(=O)N2CCC(F)(F)CC2)N(C)C(=O)[C@H](CCc2ccc(C(F)(F)F)c(Cl)c2)NC(=O)CN(C)C(=O)[C@H](CC2CCCCC2)N(C)C(=O)[C@@H]2CCN2C(=O)[C@H](C)N(C)C1=O [Compound 26] ([NMeL]I[NMeA][Aze][NMeCha][Sar][hPhe(3-Cl-4-CF3)][NMeD](N(CH2CH2)2CF2)[Ac5c][NMeGly(cPent)][NMeD]-Pyrrolidide; lactam N-11) | 4.3
CC[C@H](C)[C@@H]1NC(=O)[C@H](CC(C)C)N(C)C(=O)C[C@@H](C(=O)N(C)C)N(C)C(=O)[C@H]([C@@H](C)CC)N(C)C(=O)C2(CCCC2)NC(=O)[C@H](COCCC(C)C)N(C)C(=O)[C@H](CCc2ccc(C(F)(F)F)c(Cl)c2)NC(=O)CN(C)C(=O)[C@H](Cc2ccc(C)cc2)N(C)C(=O)[C@@H]2CCN2C(=O)[C@H](C)N(C)C1=O [Compound 27, (3S,6S,9S,13S,16S,22S,25S,31S,34S)-25-[2-[3-chloro-4-(trifluoromethyl)phenyl]ethyl]-9-isobutyl-22-(isopentyloxymethyl)-N,N,3,4,10,14,17,23,29,32-decamethyl-6,16-bis[(1S)-1-methylpropyl]-2,5,8,11,15,18,21,24,27,30,33-undecaoxo-31-(p-tolylmethyl)spiro[1,4,7,10,14,17,20,23,26,29,32-undecazabicyclo[32.2.0]hexatriacontane-19,1′-cyclopentane]-13-carboxamide] ([NMeL]I[NMeA][Aze][NMePhe(4-Me)][Sar][hPhe(3-Cl-4-CF3)][NMeS](Isopentyl)[Ac5c][NMeI][NMeD]-NMe2; lactam N-11) | 3.3
CC[C@H](C)[C@@H]1NC(=O)[C@H](C)N(C)C(=O)C[C@@H](C)NC(=O)[C@H](CC(C)C)N(C)C(=O)C(C)(C)NC(=O)[C@H](CC(C)C)N(C)C(=O)[C@H](CCc2ccc(F)cc2)NC(=O)CN(C)C(=O)[C@H](Cc2ccc(Cl)cc2)N(C)C(=O)CN(C)C(=O)CN(C)C1=O [Compound 28] (cyclo([Aib][NMeL][d(β3hA)][NMeA]I[Sar][Sar][NMePhe(4-Cl)][Sar][hPhe(4-F)][NMeL])) | 160
CC[C@H](C)[C@@H]1NC(=O)[C@H](C)N(C)C(=O)C[C@@H](C(=O)N2CCCC2)NC(=O)[C@H](C(C)C)N(C)C(=O)[C@H](Cc2ccccc2)N(C)C(=O)[C@H](Cc2ccccc2)NC(=O)[C@H](Cc2cccc(Cl)c2)NC(=O)CN(CC)C(=O)[C@H](Cc2ccc(Cl)cc2)N(C)C(=O)CN(C)C(=O)CN(C)C1=O [Compound 29] ([NMeA]I[Sar][Sar][NMePhe(4-Cl)][NEtG][Phe(3-Cl)]F[NMeF][NMeV]D-Pyrrolidide; lactam N-11) | 320
CC[C@H](C)[C@@H]1NC(=O)[C@@H]2CCCCN2C(=O)C[C@@H](C)NC(=O)[C@H](CC(C)C)N(C)C(=O)C(C)(C)NC(=O)[C@H](CC(C)C)N(C)C(=O)[C@H](CCc2ccc(C(F)(F)F)cc2)NC(=O)CN(C)C(=O)[C@H](CC2CCCCC2)N(C)C(=O)CN(C)C(=O)CN(C)C1=O [Compound 31] (cyclo([Aib][NMeL][d(β3hA)][Pip]I[Sar][Sar][NMeCha][Sar][hPhe(4-CF3)][NMeL])) | 380
